Experimental data: paper PMC12080312 (2025)

Legend:
[1] = test system: N1MA1a (DNA, aptamer) GACGACACATAATTGTTGATCCACTGTTTATTAGGTGTCGTC; assay: ITC; details: 500 mM Na+, 20 mM Mg2+; 50 mM Tris, pH 7.6, 25 °C; abstract prints 0.75 ± 0.04
[2] = test system: N1MA2a (DNA, aptamer) GACGACAAGGTTGCTGGTCTGGTACAGAGATAGTTCGTCGTC; assay: ITC; details: 500 mM Na+, 20 mM Mg2+; 50 mM Tris, pH 7.6, 25 °C
[3] = test system: AdeApt (classical adenosine aptamer) (DNA, aptamer) ACCTGGGGGAGTATTGCGGAGGAAGGT; assay: ThT fluorescence displacement; details: 500 mM Na+, 20 mM Mg2+; Kd could not be fitted; 50 mM Tris, pH 7.6; ThT tracer

Compound: Cn1cnc2c(ncn2[C@@H]2O[C@H](CO)[C@@H](O)[C@H]2O)c1=N
- Kd [1]: 0.75 ± 0.07 µM
- Kd [2]: 7.3 ± 7.5 µM
- binding [3]: weak
